Drawing on publication PMC6934184, “Selective DNA-PKcs inhibition extends the therapeutic index of localized radiotherapy and chemotherapy” (The Journal of Clinical Investigation, 2019), this text covers inhibition for one molecule.

This test has as its target T1, MAP3K8 (COT) (Homo sapiens, UniProt P41279).
T1 construct: purchased Thermo Fisher Scientific (Life Technologies) SelectScreen
Briefly: SelectScreen Z'LYTE. The format is biochemical. Particulars: ATP 100 µM. Put shortly: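 NU5455 was profiled across the SelectScreen Broad panel of kinase activity and binding assays. Z'LYTE reactions such as CSF1R ran at apparent Km ATP, while the Adapta CAMK1 assay used ATP listed as 10. Values are given as percent.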

T1 sequence (P41279 whole entry): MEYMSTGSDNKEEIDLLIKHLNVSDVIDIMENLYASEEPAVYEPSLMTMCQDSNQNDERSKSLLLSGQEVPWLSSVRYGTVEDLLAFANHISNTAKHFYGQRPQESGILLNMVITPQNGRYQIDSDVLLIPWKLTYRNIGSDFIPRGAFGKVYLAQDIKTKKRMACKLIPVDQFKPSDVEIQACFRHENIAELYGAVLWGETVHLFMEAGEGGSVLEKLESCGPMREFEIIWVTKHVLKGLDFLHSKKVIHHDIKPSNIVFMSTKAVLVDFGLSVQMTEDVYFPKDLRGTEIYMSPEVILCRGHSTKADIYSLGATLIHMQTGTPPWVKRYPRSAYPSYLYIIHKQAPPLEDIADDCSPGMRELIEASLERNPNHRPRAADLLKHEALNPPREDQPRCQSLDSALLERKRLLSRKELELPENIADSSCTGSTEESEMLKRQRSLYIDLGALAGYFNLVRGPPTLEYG

In turn, `CN(C(=O)CN1CCOCC1)c1ccc2sc3c(-c4cccc5c(=O)cc(N6CC7CCC(C6)O7)oc45)cccc3c2c1` [NU5455] returned an inhibition at 1 µM of 3.5%.

What is called inhibition is how much of the control response was suppressed. The low end stands for a weak effect, the high end for a strong effect.
